Where two headings read alike, the source gives them in different places.
How the values were obtained:
[1] = Pharmacokinetic study in rats after single oral administration of S. officinalis extract (UHPLC-MS/MS of plasma); type: in vivo, Sprague-Dawley rats; settings: for Cmax / AUC(0-inf) / AUC(0-t) / Tmax / half-life: rat plasma, single oral dose of S. officinalis extract 0.015 g/kg, n = 12, mean ± SD; for time of first peak of mean plasma concentration-time curve (double-peak phenomenon) / time of second peak of mean plasma concentration-time curve (double-peak phenomenon): rats, after oral administration of S. officinalis extract, Figure 4
Experimental: The UHPLC-MS/MS method was successfully used in the pharmacokinetic studies of six analytes after single dose administration of S. officinalis extract in rats. Based on the body surface area calculations of people and the animals and equivalent dose conversion calculations, the dosage of the rats was 0.015 g/kg. The half-time (t1/2), maximum plasma concentration (Cmax), time to reach Cmax (Tmax), and area under concentration–time curve (AUC0→t and AUC0→∞) were calculated via non-compartmental analysis (Table 6). The pharmacokinetic parameters of six components were reckoned by means of non-compartmental analysis using DAS 2.0 (Shanghai, China).
The experimental protocol was permitted by the Animal Ethics Committee of Harbin Medical University and conformed to the principles for the Care and Use of Laboratory Animals. Twelve male Sprague-Dawley rats (Weight 200 ± 20 g) were provided by the Laboratory Animal Centre of Harbin Medical University (Harbin, China). Each rat was fasted for 12 h before giving the drug and had free water supply even during the experiment. The S. officinalis extract was dissolved in water. A single dose of the S. officinalis extract (0.015 g/kg) was administrated to the rats. Blood (0.3 mL) was gained from the retinal venous plexus at 0, 0.083, 0.25, 0.5 1.0, 1.5, 2.0, 3.0, 4.0, 6.0, 8.0, 12.0 and 24.0 h after dosing. The plasma was immediately separated by centrifugation at 12000 rpm for 5 min at […].
Ten microliters of IS (1040.0 ng/mL) solution and 100 μL of methanol were added to 100 μL aliquot of plasma sample and vortexed for 30 s. The mixture was extracted with 3 mL ethyl acetate by being vortex-mixed for 1 min. The supernatant was separated and evaporated to dryness by N2 blowing at 40 °C after centrifuging at 3800 rpm for 5 min. The residue was reconstituted with 100 μL of methanol, and then vortex-mixed for 2 min and filtered by a 0.22 μm nylon 66 organic membrane. This was followed by injection of 5 μL aliquot of the solution into the UHPLC-MS/MS system (Agilent Technologies, Santa Clara, CA, USA).
The maximum concentration (Cmax) and the time to attain it (Tmax) were observed directly from the measured data. The elimination rate constant (Ke) was calculated by linear regression of the terminal points in a semi-log plot of the plasma concentration against time. The elimination half-life (t1/2) was calculated using the formula t1/2 = 0.693/Ke. The area under plasma concentration–time curve (AUC0→t) to the last measurable plasma concentration (Ct) was estimated by using the linear trapezoidal rule. The area under the plasma concentration–time curve to time infinity (AUC0→∞) was calculated as: AUC0→∞ = AUC0→t + Ct/Ke. The pharmacokinetic parameters of six analytes were reckoned by non-compartmental analysis using DAS 2.0 (Mathematical Pharmacology Professional Committee of China, Shanghai, China).

[2] = Stability of analytes in rat plasma under various storage conditions; type: in vitro ADME; settings: for Stability Post-Preparation: 12 h after sample preparation at 4 °C; for Stability Short-Term / Stability Long-Term / Stability Three Freeze-Thaw: rat plasma; for Stability Short-Term: room temperature 4 h; for Stability Long-Term: storage for 2 weeks; for Stability Three Freeze-Thaw: three freeze–thaw cycles at −20 °C
Experimental: The stability of six analytes in rat plasma was estimated under different storage conditions. […] Post-preparative stability of analytes also implied that there was no obvious degradation when samples were kept at 4 °C for 12 h. In addition, all compounds remained stable for two weeks at […].
The stability of six compounds in rat plasma including freeze and thaw stability (three freeze–thaw cycles at −20 °C), long-term stability (storage for 2 weeks at −80 °C), room temperature stability (storage for 4 h at ambient temperature), and post-preparation stability […] All stability testing QC samples were determined by using the calibration curve of freshly prepared standard samples.

[3] = male, Sprague-Dawley, rat, plasma, po, 0.015 g/kg, read-out: Cmax

Compound	Cmax [1, 3] [ng/mL]	AUC(0-inf) ([1]; male, Sprague-Dawley) [ng·h/mL]	AUC(0-t) ([1]; male, Sprague-Dawley) [ng·h/mL]	Tmax ([1]; male, Sprague-Dawley) [h]	half-life ([1]; male, Sprague-Dawley) [h]	Cmax [1] [ng/mL]	time of first peak of mean plasma concentration-time curve (double-peak phenomenon) [1] [h]	time of second peak of mean plasma concentration-time curve (double-peak phenomenon) [1] [h]	Stability Post-Preparation ([2]; high QC spiked concentration) [% RE]	Stability Post-Preparation ([2]; low QC spiked concentration) [% RE]	Stability Post-Preparation ([2]; medium QC spiked concentration) [% RE]	Stability Short-Term ([2]; high QC spiked concentration) [% RE]	Stability Short-Term ([2]; low QC spiked concentration) [% RE]	Stability Short-Term ([2]; medium QC spiked concentration) [% RE]	Stability Long-Term ([2]; high QC spiked concentration) [% RE]	Stability Long-Term ([2]; low QC spiked concentration) [% RE]	Stability Long-Term ([2]; medium QC spiked concentration) [% RE]	Stability Three Freeze-Thaw ([2]; high QC spiked concentration) [% RE]	Stability Three Freeze-Thaw ([2]; low QC spiked concentration) [% RE]	Stability Three Freeze-Thaw ([2]; medium QC spiked concentration) [% RE]
C[C@@H]1CC[C@]2(C(=O)O[C@@H]3O[C@H](CO)[C@@H](O)[C@H](O)[C@H]3O)CC[C@]3(C)C(=CC[C@@H]4[C@@]5(C)CC[C@H](O[C@@H]6OC[C@H](O)[C@H](O)[C@H]6O)C(C)(C)[C@@H]5CC[C@]43C)[C@@H]2[C@]1(C)O [I, ziyuglycoside I]	745 ± 85.7	3320 ± 429	2880 ± 303	0.92 ± 0.2	11.6 ± 3.07	744.7 ± 85.7	0.5 to 1.5	4 to 8	−9.95	−2.07	3.53	2.44	4.27	6.27	2.03	2.43	−6.57	2.51	6.07	10.19
CC1=C2C3=CCC4C5(C)CCC(OC6OCC(O)C(O)C6O)C(C)(C)C5CCC4(C)C3(C)CCC2(C(=O)OC2OC(CO)C(O)C(O)C2O)CCC1C [III, 3β-[(α-L-arabinopyranosyl)oxy]-urs-12,18(19)-dien-28-oic acid β-D-glucopyranosyl ester]	318 ± 47.6	1230 ± 193	1140 ± 150	1.33 ± 0.26	6.86 ± 2.91	317.9 ± 47.6	0.25	< 1.5	1.10	−1.34	−2.48	−2.42	−5.54	−7.66	4.31	3.75	−5.18	−3.38	−7.72	−5.29
C[C@@H]1CC[C@]2(C(=O)O[C@@H]3O[C@H](CO)[C@@H](O)[C@H](O)[C@H]3O)CC[C@]3(C)C(=CC[C@@H]4[C@@]5(C)C[C@@H](O)[C@H](O)C(C)(C)[C@@H]5CC[C@]43C)[C@@H]2[C@]1(C)O [IV, rosamultin]	315 ± 22.5	1300 ± 193	1210 ± 120	1.58 ± 0.2	7.32 ± 2.74	314.5 ± 22.5	–	–	3.95	7.45	2.23	4.55	9.63	7.81	−6.75	4.88	2.71	2.07	6.80	3.84

Further lines, results first:

Cmax [1, 3] [ng/mL]	AUC(0-inf) ([1]; male, Sprague-Dawley) [ng·h/mL]	AUC(0-t) ([1]; male, Sprague-Dawley) [ng·h/mL]	Tmax ([1]; male, Sprague-Dawley) [h]	half-life ([1]; male, Sprague-Dawley) [h]	Cmax [1] [ng/mL]	time of first peak of mean plasma concentration-time curve (double-peak phenomenon) [1] [h]	time of second peak of mean plasma concentration-time curve (double-peak phenomenon) [1] [h]	Stability Post-Preparation ([2]; high QC spiked concentration) [% RE]	Stability Post-Preparation ([2]; low QC spiked concentration) [% RE]	Stability Post-Preparation ([2]; medium QC spiked concentration) [% RE]	Stability Short-Term ([2]; high QC spiked concentration) [% RE]	Stability Short-Term ([2]; low QC spiked concentration) [% RE]	Stability Short-Term ([2]; medium QC spiked concentration) [% RE]	Stability Long-Term ([2]; high QC spiked concentration) [% RE]	Stability Long-Term ([2]; low QC spiked concentration) [% RE]	Stability Long-Term ([2]; medium QC spiked concentration) [% RE]	Stability Three Freeze-Thaw ([2]; high QC spiked concentration) [% RE]	Stability Three Freeze-Thaw ([2]; low QC spiked concentration) [% RE]	Stability Three Freeze-Thaw ([2]; medium QC spiked concentration) [% RE]	Compound
212 ± 11.8	794 ± 152	733 ± 94.1	0.58 ± 0.2	7.35 ± 3.95	211.5 ± 11.8	–	–	−3.03	8.48	5.23	2.56	−4.77	−3.67	3.06	9.86	6.95	2.28	−9.67	3.99	CC1CCC2(C(=O)O)CCC3(C)C(=CCC4C5(C)C(O)C(O)C(O)C(C)(C)C5CCC43C)C2C1(C)O (stereo not drawn) [V, 1β-hydroxyeuscaphic acid]
243 ± 19.9	1110 ± 98.1	1030 ± 73.4	1.17 ± 0.26	7.72 ± 1.22	243.2 ± 19.9	0.5 to 1.5	4 to 8	4.85	3.18	9.78	3.26	−10.78	2.34	5.28	−2.07	2.79	−1.64	2.74	6.61	C=C1[C@H]2C3=CC[C@@H]4[C@@]5(C)C[C@@H](O)[C@@H](O)C(C)(C)[C@@H]5CC[C@@]4(C)[C@]3(C)CC[C@@]2(C(=O)O[C@@H]2O[C@H](CO)[C@@H](O)[C@H](O)[C@H]2O)CC[C@H]1C [VI, alpinoside]

— article PMC6278537, “Simultaneous Determination and Pharmacokinetics Study of Six Triterpenes in Rat Plasma by UHPLC-MS/MS after Oral Administration of Sanguisorba officinalis L. Extract” (Molecules, 2018)
